In ChEMBL document CHEMBL2073771, “Dibenzocyclooctadiene lignans: a class of novel inhibitors of multidrug resistance-associated protein 1” (Life Sci, 2006):

Columns and labels:
Type in all cases: functional, cell-based
[1] = target: T1, Multidrug resistance-associated protein 1 (Homo sapiens, UniProt P33527); assay: TP_TRANSPORTER: inhibition of VP-16 transport in HL60/MRP cells
[2] = target: T1, Multidrug resistance-associated protein 1; assay: TP_TRANSPORTER: inhibition of VP-16 transport in HL60/ADR cells (overexpression of MRP1)
[3] = target: T1, Multidrug resistance-associated protein 1; assay: TP_TRANSPORTER: inhibition of VCR transport in HL60/MRP cells
[4] = target: T1, Multidrug resistance-associated protein 1; assay: TP_TRANSPORTER: inhibition of VCR transport in HL60/ADR cells (overexpression of MRP1)
[5] = target: T1, Multidrug resistance-associated protein 1; assay: TP_TRANSPORTER: inhibition of DNR transport in HL60/MRP cells
[6] = target: T1, Multidrug resistance-associated protein 1; assay: TP_TRANSPORTER: inhibition of DNR transport in HL60/ADR cells (overexpression of MRP1)

T1 sequence (P33527 whole entry): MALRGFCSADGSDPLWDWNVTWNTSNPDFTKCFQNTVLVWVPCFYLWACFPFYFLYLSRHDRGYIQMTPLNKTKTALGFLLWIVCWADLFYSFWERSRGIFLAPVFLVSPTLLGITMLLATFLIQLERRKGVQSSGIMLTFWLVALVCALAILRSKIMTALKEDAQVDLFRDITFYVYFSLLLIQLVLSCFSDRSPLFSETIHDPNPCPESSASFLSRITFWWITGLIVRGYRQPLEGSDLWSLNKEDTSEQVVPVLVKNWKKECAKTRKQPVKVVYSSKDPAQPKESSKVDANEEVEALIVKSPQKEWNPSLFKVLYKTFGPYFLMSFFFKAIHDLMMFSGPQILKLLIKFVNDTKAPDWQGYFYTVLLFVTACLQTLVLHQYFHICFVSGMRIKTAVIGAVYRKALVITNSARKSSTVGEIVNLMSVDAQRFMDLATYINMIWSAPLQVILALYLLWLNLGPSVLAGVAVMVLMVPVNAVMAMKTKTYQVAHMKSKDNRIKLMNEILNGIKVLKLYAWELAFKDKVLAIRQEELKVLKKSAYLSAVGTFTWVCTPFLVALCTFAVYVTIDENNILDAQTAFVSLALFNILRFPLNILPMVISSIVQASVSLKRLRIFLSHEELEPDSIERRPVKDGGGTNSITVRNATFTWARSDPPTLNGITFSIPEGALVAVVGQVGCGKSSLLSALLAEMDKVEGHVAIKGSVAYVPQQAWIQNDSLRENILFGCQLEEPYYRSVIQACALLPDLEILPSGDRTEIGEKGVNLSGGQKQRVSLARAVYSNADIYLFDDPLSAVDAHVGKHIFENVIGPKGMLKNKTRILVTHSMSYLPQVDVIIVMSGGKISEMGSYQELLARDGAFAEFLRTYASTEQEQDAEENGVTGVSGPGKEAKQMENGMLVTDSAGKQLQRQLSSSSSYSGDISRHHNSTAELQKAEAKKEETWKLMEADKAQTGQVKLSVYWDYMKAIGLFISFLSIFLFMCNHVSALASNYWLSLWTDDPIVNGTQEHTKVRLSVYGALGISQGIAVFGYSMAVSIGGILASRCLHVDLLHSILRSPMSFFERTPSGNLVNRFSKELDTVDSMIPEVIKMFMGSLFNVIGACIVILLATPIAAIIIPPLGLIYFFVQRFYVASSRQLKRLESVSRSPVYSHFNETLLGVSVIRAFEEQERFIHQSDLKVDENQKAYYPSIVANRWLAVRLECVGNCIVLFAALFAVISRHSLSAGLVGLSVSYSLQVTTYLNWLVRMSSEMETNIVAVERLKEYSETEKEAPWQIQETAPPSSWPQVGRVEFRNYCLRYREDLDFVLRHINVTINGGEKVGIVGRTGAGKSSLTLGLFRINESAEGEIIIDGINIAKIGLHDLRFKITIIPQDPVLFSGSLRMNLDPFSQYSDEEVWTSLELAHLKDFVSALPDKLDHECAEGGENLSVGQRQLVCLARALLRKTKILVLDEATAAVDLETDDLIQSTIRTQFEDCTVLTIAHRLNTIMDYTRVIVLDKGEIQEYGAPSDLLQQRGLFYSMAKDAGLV

IC50 [1] [nM]	IC50 [2] [nM]	IC50 [3] [nM]	IC50 [4] [nM]	IC50 [5] [nM]	IC50 [6] [nM]	Structure (SMILES)
2760	7770	9.36	0.96	182	122	COc1cc2c(c(OC)c1OC)-c1c(cc3c(c1OC)OCO3)C[C@H](C)[C@@](C)(O)C2 [GOMISIN A]
2340	4890	6.96	9.84	154	142	COc1cc2c(c(OC)c1OC)-c1c(cc(OC)c(OC)c1OC)C[C@H](C)[C@H](C)C2 [SCHISANDRIN A]
2250	4190	9.49	1.25	205	140	COc1cc2c(c(OC)c1OC)-c1c(cc3c(c1OC)OCO3)CC(C)C(C)C2 (centres undefined) [SCHISANDRIN B]
3240	7250	8.09	1.16	217	125	COc1cc2c(c(OC)c1OC)-c1c(cc(OC)c(OC)c1OC)C[C@](C)(O)[C@@H](C)C2 [SCHIZANDRIN]
